In publication PMC9781104 (Pharmaceutics, 2022):
Like-named read-outs stand apart in the source and are kept apart here.

Columns and labels:
[1] = Pharmacokinetic panel study in CYP2D6-genotyped healthy female volunteers (observed plasma AUClast/Cmax, DGI and DD(G)I with clarithromycin or paroxetine); format: in vivo, human; settings: for order of AUClast across CYP2D6 phenotypes: DGI setting
Description: Clinical data from a recently performed pharmacokinetic panel study (EudraCT-Nr.: 2009-014531-20, ClinicalTrails.gov: NCT01289756) were used for PBPK model development. The study protocol, patient information sheet and consent form were approved by the Ethics Committee of the University of Tübingen and the German Federal Institute for Drugs and Medical Devices (BfArM). All study participants had signed an informed consent form.
The study was conducted in 20 healthy, Caucasian, premenopausal female volunteers that were genotyped for CYP2D6 polymorphisms and subsequently assigned to predicted phenotypes according to the respective CYP2D6 activity score (AS) as depicted in Table 1 [17, 18]. […] After a wash-out phase of at least three weeks, clomiphene was administered concomitantly with the strong CYP3A4 inhibitor clarithromycin [19]. Here, the participants received 500 mg clarithromycin twice daily for four days. On day 5, a single dose of clomiphene citrate was administered together with 500 mg clarithromycin. Finally, in the third period, all subjects received clomiphene citrate together with the strong CYP2D6 inhibitor paroxetine. Here, 40 mg paroxetine was administered once daily for two days. On day 3, participants received a single dose of clomiphene citrate concomitantly with 40 mg paroxetine (Figure 1).
For the evaluation of DGI and DD(G)I effects, the predicted AUClast and Cmax effect ratios were calculated according to Equations (4) and (5) and compared with the corresponding observed values. Here, model performance was assessed using the prediction acceptance limits proposed by Guest et al. with 1.25-fold variability. (4) AUClast, AS=i ratio=AUClast, effect, AS=i/AUClast, control (5) Cmax, AS=i ratio=Cmax, effect, AS=i/Cmax, control
For the calculation of DGI ratios, AUClast, effect, AS=i and Cmax, effect, AS=i represent the AUClast and Cmax for CYP2D6 AS = i, while AUClast, control and Cmax, control are the AUClast and Cmax values for the NM (AS = 2) population. For the calculation of DD(G)I ratios, AUClast, effect, AS=i and Cmax, effect, AS=i represent the AUClast and Cmax for the CYP2D6 AS = i in the DD(G)I scenario with clarithromycin or paroxetine, while AUClast, control and Cmax, control are the AUClast and Cmax values for the CYP2D6 AS = i without the concomitant use of perpetrator drugs.

[2] = test system: CYP2D6; test: PBPK model: CYP2D6-mediated metabolism (Km, kcat, contribution); parameters: species or system human; settings: Assumed equal to Km of CYP2D6-mediated hydroxylation of (E)-4-OH-Clom, adapted with fu,inc=0.243; read-out: CYP2D6 Km → undef., assumed
From the text: An additional biotransformation process via CYP2B6 to (E)-4-OH-Clom was implemented to cover the fraction of CYP2D6-independent metabolism observed in the PM population and in CYP2D6 DD(G)I scenarios.
(E)-4-OH-Clom is metabolized via CYP2D6 to (Z)-3,4-dihydroxyclomiphene (implemented as an undefined metabolite), via an unspecific hepatic clearance mechanism and via CYP3A4 to the second active metabolite (E)-4-OH-DE-Clom. (E)-4-OH-DE-Clom is also formed via CYP2D6 metabolism of (E)-DE-Clom, which in turn, represents the main route of elimination of (E)-DE-Clom. Furthermore, (E)-DE-Clom is metabolized to minor extents through CYP2D6 and CYP3A4 to (E)-N,N-didesethylclomiphene (implemented as an undefined metabolite). The metabolism of (E)-4-OH-DE-Clom has not been extensively investigated, yet. According to work by Kröner, (E)-4-OH-DE-Clom is presumably metabolized through a CYP-mediated pathway to (Z)-3,4-dihydroxydesethyl-clomiphene. […]
This was integrated by accounting for the 80:20 metabolic ratio of CYP3A4 to CYP2D6 reported by Mazzarino and coworkers. […] As previously described, the ratio of the corresponding measured in vitro metabolic enzyme activities was used dur-ing the parameter estimation step for optimization of kcat values (kcat, CYP3A4 = 0.13 * kcat, CYP2D6)

[3] = test system: CYP2D6; test: In vitro scaling factors from CYP2D6 activity score-specific in vitro metabolite formation rates; format: in vitro ADME, human
From the text: Here, kcat, AS=i represents the catalytic rate constant for CYP2D6 AS = i, kcat, AS=2 is the catalytic rate constant for the NM population and IVSFi is the corresponding in vitro scaling factor (IVSF).
S2. Drug-Gene-Interaction (DGI) Modeling
S2.1. CYP2D6 in vitro Scaling Factors
The estimated CYP2D6 kcat values for the NM population were extrapolated to the intermediate metabolizers (IM) (AS=0.5, AS=0.75 and AS=1) and ultrarapid metabolizers (UM) populations according to Equation 1 in the main manuscript, using in vitro scaling factors (IVSFs). Determination of IVSFs were based on AS-specific in vitro metabolite formation rates relative to the corresponding formation rate in NM as a reference. The respective IVSFs for each CYP2D6-dependent pathway are depicted in Table S8. Measured in vitro data for (E)-4-OH-Clom and (E)-4-OH-DE-Clom AS-specific formation rates were available, while mean values were assumed for the remaining CYP2D6-dependent metabolic pathways.
Table S8. Employed in vitro scaling factors (IVSFs) for individual CYP2D6 activity scores. […]

[4] = molecular target: estrogen receptor; settings: read-out: half-maximal inhibitory concentration towards the estrogen receptor; cited from earlier work
[5] = cited from earlier work; for pKa (base), literature: ref [23], [30]
[6] = parameters: method as in PMID 22108178; settings: healthy female volunteers; cited from earlier work
[7] = test system: CYP2D6; test: Fraction metabolized via CYP2D6 calculated from observed AUClast (PM vs NM, Equation S1); format: in vivo, human; settings: calculated from observed relative AUClast increase PM vs NM
From the text: Calculation of Fractions Metabolized
(§1) (normal metabolizers (NM)) [39]. […] In addition, data from
(§2) the CYP2D6 NM population in the clarithromycin DDI scenario (CYP3A4 inhibition) was used to
(§3) For this, the observed relative AUClast increase in the NM population between
(§4) the DDI scenario with CYP3A4 inhibition and the control scenario without inhibition was used,
(§5) 1 −fm = AUClast,effect,AS=iAUClast,control (S1)

[8] = test system: CYP3A4; test: Fraction metabolized via CYP3A4 calculated from observed AUClast (NM with vs without clarithromycin, Equation S1); format: in vivo, human; settings: estimated from observed AUClast increase in NM with clarithromycin
From the text: Calculation of Fractions Metabolized
as §1, §2, §3, §4
Of note, a complete CYP3A4 inhibition through clarithromycin
was assumed, given the strong and mechanism-based inhibition through clarithromycin, which was
as §5
for the NM population without concomitant clarithromycin administration.

[9] = Bioavailability calculated from literature AUC0-24h after oral and intravenous clomiphene citrate; format: in vivo, human; settings: 50 mg clomiphene citrate; intravenous study n = 2
From the text: Both isomers show highly distinct pharmacokinetic characteristics and also differ in affinity to the target receptor [22, 28]. […] While the calculated value from the literature is based on an intravenous study with a small number of study participants (n = 2), a low bioavailability can be supported with the developed PBPK model.

[10] = test system: CYP2D6; settings: cited from earlier work; for Km: literature value adapted with fu,inc
[11] = test system: CYP3A4; parameters: method as in ref [17, 18] of supplement; settings: literature value adapted with fu,inc; ref [17, 18] of supplement; read-out: CYP3A4 Km → (E)-DE-Clom; cited from earlier work
[12] = test system: CYP2B6; parameters: method as in ref [17, 18] of supplement; settings: literature value adapted with fu,inc; ref [17, 18] of supplement; read-out: CYP2B6 Km → (E)-4-OH-Clom; cited from earlier work
[13] = [34], [38] of supplement (ChemAxon Chemicalize)

In the case of `CCNCCOc1ccc(/C(=C(/Cl)c2ccccc2)c2ccc(O)cc2)cc1` [(E)-4-OH-DE-Clom, (E)-4-hydroxy-N-desethylclomiphene], the “order of AUClast across CYP2D6 phenotypes” value [1] is reported as “AUCIM (AS = 0.5) > AUCNM > AUCUM > AUCPM”, the “observed DGI AUClast effect ratio” value ([1]; IM (AS = 1) vs NM) is reported as ~ 0.8 and the “observed AUClast effect ratio in clarithromycin DDGI scenario vs control” value ([1]; PM) is reported as ~ 0.6 fold. The Km [2] was 8.86 µM, the “IVSF, CYP2D6-mediated pathway → undef.” value ([3]; AS=0, mean value assumed) was 0 and the “IVSF, CYP2D6-mediated pathway → undef.” value ([3]; AS=0.5, mean value assumed) was 0.17. For the same molecule, the “IVSF, CYP2D6-mediated pathway → undef.” value ([3]; AS=0.75, mean value assumed) was 0.23, the “IVSF, CYP2D6-mediated pathway → undef.” value ([3]; AS=1, mean value assumed) was 0.51 and the “IVSF, CYP2D6-mediated pathway → undef.” value ([3]; AS=2 (NM, reference)) was 1. For the same molecule, the “IVSF, CYP2D6-mediated pathway → undef.” value ([3]; AS=3, mean value assumed) was 1.41, the IC50 [4] was 0.9 nM and the “Solubility (pH 6.5)” value ([5]; pH 6.5, ref [30], [34], [38] of supplement (ChemAxon Chemicalize)) was 0.17 mg/ml. The “logP (lipophilicity), literature” value ([5]; ref [23, 25-27], [30, 31], [25, 34], [38] of supplement) was 4.47, the “pKa (base), literature” value [5, 13] was 9.65 and the “pKa (acid)” value ([5]; ref [34], [38] of supplement (ChemAxon Chemicalize)) was 8.69. For the same molecule, the “maximum plasma concentration (Cmax) in CYP2D6 PM compared with NM” value [6] was “approximately ten-fold lower”.

In the case of `CCN(CC)CCOc1ccc(/C(=C(/Cl)c2ccccc2)c2ccccc2)cc1` [(E)-Clom, (E)-clomiphene, reference compound], the “order of AUClast across CYP2D6 phenotypes” value [1] is reported as “AUCPM > AUCIM > AUCNM > AUCUM”, the “exposure increase in clarithromycin DD(G)I scenario vs control” value ([1]; NM) is reported as ~ 15% and the “AUClast increase with concomitant paroxetine” value ([1]; all phenotypes except PM) is reported as 2.5–12 fold. For the same molecule, the “AUClast change during CYP3A4 inhibition” value ([1]; clarithromycin, all phenotypes) was “slight increase”, the “fraction metabolized (fm) via CYP2D6” value [7] was ~90% and the “fraction metabolized (fm) via CYP3A4” value [8] was “approximately 13%”. For the same molecule, the “bioavailability calculated from reported AUC0-24h after oral and intravenous application” value [9] was ~ 6.3%, the “IVSF, CYP2D6-mediated pathway → (E)-DE-Clom” value (“IVSF … (E)-DE-Clom” for short) ([3]; AS=0, mean value assumed) was 0 and the “IVSF, CYP2D6-mediated pathway → undef.” value ([3]; AS=0, mean value assumed) was 0. For the same molecule, the “IVSF, CYP2D6-mediated pathway → (E)-4-OH-Clom” value (shortened to “IVSF … (E)-4-OH-Clom”) ([3]; AS=0, relative to NM, from in vitro formation rates, supplement ref [17]) was 0, the “IVSF … (E)-DE-Clom” value ([3]; AS=0.5, mean value assumed) was 0.17 and the “IVSF, CYP2D6-mediated pathway → undef.” value ([3]; AS=0.5, mean value assumed) was 0.17. The “IVSF … (E)-4-OH-Clom” value ([3]; AS=0.5, relative to NM, from in vitro formation rates, supplement ref [17]) was 0.19, the “IVSF … (E)-DE-Clom” value ([3]; AS=0.75, mean value assumed) was 0.23 and the “IVSF, CYP2D6-mediated pathway → undef.” value ([3]; AS=0.75, mean value assumed) was 0.23. The “IVSF … (E)-4-OH-Clom” value ([3]; AS=0.75, relative to NM, from in vitro formation rates, supplement ref [17]) was 0.27, the “IVSF … (E)-DE-Clom” value ([3]; AS=1, mean value assumed) was 0.51 and the “IVSF, CYP2D6-mediated pathway → undef.” value ([3]; AS=1, mean value assumed) was 0.51. For the same molecule, the “IVSF … (E)-4-OH-Clom” value ([3]; AS=1, relative to NM, from in vitro formation rates, supplement ref [17]) was 0.57, the “IVSF … (E)-4-OH-Clom” value ([3]; AS=2 (NM, reference)) was 1 and the “IVSF … (E)-DE-Clom” value ([3]; AS=2 (NM, reference)) was 1. For the same molecule, the “IVSF, CYP2D6-mediated pathway → undef.” value ([3]; AS=2 (NM, reference)) was 1, the “IVSF … (E)-DE-Clom” value ([3]; AS=3, mean value assumed) was 1.41 and the “IVSF, CYP2D6-mediated pathway → undef.” value ([3]; AS=3, mean value assumed) was 1.41. For the same molecule, the “IVSF … (E)-4-OH-Clom” value ([3]; AS=3, relative to NM, from in vitro formation rates, supplement ref [17]) was 1.52, the “intrinsic clearance of CYP2D6 pathway to (Z)-3-hydroxyclomiphene compared to formation of (E)-4-OH-Clom” value ([10]; higher, ref [19] of supplement) was 1.8 fold and the Km ([10]; ref [17, 18] of supplement, read-out: CYP2D6 Km → (E)-DE-Clom) was 780 nM. The Km ([10]; ref [19] ((E)-Clom, (E)-4-OH-Clom), [17, 18] ((E)-DE-Clom) of supplement, read-out: CYP2D6 Km → undef.) was 30 nM, the Km ([10]; ref [19] of supplement, read-out: CYP2D6 Km → (E)-4-OH-Clom) was 130 nM and the Km [11] was 780 nM. The Km [12] was 600 nM, the “Solubility (pH 6.8)” value ([5]; pH 6.8, ref [24] of supplement) was 0.0138 mg/ml and the “pKa (base), literature” value [5, 13] was 9.31.
